Data: patent publication US5686422A, “Synthetic inhibitors of mammalian collagenase” (Research Corporation Technologies, Inc., priority 1995, dated 1997)
Read-outs that look alike come from different tables or passages of the source.

Columns and labels:
PA elastase = target: T1, PA elastase (Pseudomonas aeruginosa, UniProt P14756); test: biochemical
T1 construct: made in house; host or cells: native secreted enzyme from a virulent Pseudomonas aeruginosa strain grown on tryptone glucose extract agar
Procedure: Pseudomonas aeruginosa proteases were obtained by overnight incubation of virulent strain of Pseudomonas aeruginosa (PA) on tryptone glucose extract agar.
The PA elastase was tested in accordance with the procedures analogous to those conducted on purified collagenase in Example 5.
Example 7 was repeated using three corneal ulceration treatments of the prior art: Tetracycline, minocycline and doxycycline.

[1] = target: T2, Collagenase, purified from sodium hydroxide burned rabbit corneal tissue (Oryctolagus cuniculus, UniProt P13943); test: Qualitative SDS-PAGE assay of collagen degradation by corneal collagenase; format: biochemical
T2 sequence (P13943 99-468): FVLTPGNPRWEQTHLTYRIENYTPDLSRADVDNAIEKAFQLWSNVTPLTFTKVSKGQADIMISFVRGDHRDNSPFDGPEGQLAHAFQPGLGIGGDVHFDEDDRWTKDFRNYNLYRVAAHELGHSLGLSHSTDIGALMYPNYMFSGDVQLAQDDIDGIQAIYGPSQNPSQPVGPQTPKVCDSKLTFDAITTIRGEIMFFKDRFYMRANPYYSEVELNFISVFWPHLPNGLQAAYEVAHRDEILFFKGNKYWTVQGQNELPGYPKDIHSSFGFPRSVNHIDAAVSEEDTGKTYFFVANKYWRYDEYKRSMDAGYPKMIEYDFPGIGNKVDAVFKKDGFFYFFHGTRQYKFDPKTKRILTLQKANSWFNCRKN
Procedure: Collagenase, purified from sodium hydroxide burned rabbit corneal tissue, was placed in a reaction mixture containing Type I collagen (0.4 mg/ml), 0.005M Tris-HCl, 0.2M NaCl, 0.25M glucose, pH 7.7. Reactions were initiated by adding the enzyme to the reaction mixture; inhibitory potency was estimated by running separate reaction mixtures in which the peptide HSCH2 CH[CH2 CH(CH3)2 ]--CO-Phe-Ala-NH2, made in accordance with Example 2, was added in varying concentrations to the mixture and incubated for 3 hours at 30° C. Other compounds were assayed for inhibitory potency in a similar manner. Reaction mixtures were quenched by placing them on ice and then adding one volume of sample dilution buffer followed by boiling the mixtures in a water bath for 5 minutes. Collagen degradation products were resolved from undegraded collagen by sodium dodecylsulfate-polyacylamide gel electrophoresis (SDS-PAGE) followed by staining with Coomassie Blue R-250. The SDS-PAGE assay was used to qualitatively evaluate the inhibitory capacity of the compounds tested. An estimate of inhibitory potency was then noted by visualizing the concentration range which produced 50% inhibition of collagen degradation.
The results of this qualitative assay are expressed as an IC50 range (Table II). For example, doxycyline's IC50 is 0.2 to 1.0 mM. That is, a doxycycline concentration of 0.2 to 1.0 mM is required to obtain a 50% inhibition of collagen degradation. These estimated ranges were then used to predict the inhibitor concentrations tested in the quantitative analysis detailed below.

pig synovial collagenase = target: T3, pig synovial collagenase (Sus scrofa, UniProt P21692); test: Collagenase assay: degradation of type I collagen (SDS-PAGE/densitometry or spectrophotometric); format: biochemical
T3 construct: pig synovial collagenase (0.04 μg protein); from tissue; host or cells: pig synovium (only from the enzyme's name; preparation not described)
T3 sequence (P21692 100-469): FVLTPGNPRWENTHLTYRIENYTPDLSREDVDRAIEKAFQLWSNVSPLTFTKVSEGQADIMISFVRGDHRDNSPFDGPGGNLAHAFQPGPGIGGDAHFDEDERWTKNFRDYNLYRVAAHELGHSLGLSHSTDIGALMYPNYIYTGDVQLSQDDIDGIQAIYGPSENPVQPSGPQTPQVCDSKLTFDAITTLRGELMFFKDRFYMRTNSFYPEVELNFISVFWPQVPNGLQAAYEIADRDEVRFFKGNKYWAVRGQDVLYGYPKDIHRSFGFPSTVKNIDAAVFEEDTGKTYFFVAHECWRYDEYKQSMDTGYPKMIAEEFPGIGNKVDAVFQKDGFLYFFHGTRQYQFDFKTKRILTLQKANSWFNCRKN
Procedure: Collagenase activity was determined after electrophoretic separation of degraded from undegraded type I collagen by polyacrylamide gel electrophoresis and densitometry as follows.
Acid-soluble calf skin collagen (0.25 mg/ml, approximately […]) was incubated at 35° C. for 1 hr with pig synovial collagenase (0.04 μg protein) in 0.05M tris-HCL, 0.2M NaCl, 0.25M glucose, 5 mM CaCl2, 10% dimethyl sulfoxide, pH 7.6 in a total reaction volume of 20 μL. Inhibitors were dissolved in dimethyl sulfoxide and the sulfhydryl titer determined in stock solutions immediately prior to use by the colorimetric procedure of Ellman [Ellman, G. L., Arch. Biochem. Biophys. 82: 70-77 (1959)]. At the end of the reaction period, the reactions were stopped by placing on ice and 20 μL sample dilution buffer was added [Laemmli, U. K., Nature (London) 227: 680-685 (1970)]. The samples were then placed in a boiling water bath for 2-5 minutes after which collagen degradation products were separated from undegraded collagen by sodium dodecyl sulfate-polyacrylamide electrophoresis according to the procedure of Laemmli [1970]. The electrophoretograms were fixed in isopropanol/acetic acid/water (100:40:300) and stained with 1% Coomassie Blue R-250. The percentage of collagen alpha chains degraded was estimated by scanning densitometry and integration of peak areas [Welgus et al., J. Biol. Chem. 256: 9511-9515 (1981)].
A spectrophotometric method was also utilized in some cases to determine collagenase activity [Lindy, S. et al., European J. Biochem. 156: 1-4 (1986)]. The conditions were the same as given above except that the reaction volume was 200 μL, the temperature was 37° C. and the enzyme concentration was 1.2 μg protein/ml. Stock solutions of inhibitors were prepared in 1 mM acetic acid in ethanol and the sulfhydryl titer determined colorimetrically by the method of Ellman […]. The reaction progress was monitored for 6-10 minutes by following the increase in absorbance at 227 nm that accompanies denaturation of the collagen fragments. Initial rates of collagen degradation were determined from the linear portion of the progress curves.

[2] = target: T2, Collagenase, purified from sodium hydroxide burned rabbit corneal tissue; test: Quantitative fluorometric assay with fluorogenic Dnp-peptide substrate; format: biochemical; settings: Dnp-substrate 20 uM, 37° C. for 2 to 3 minutes
Procedure: Quantitative determination of collagenase activity was carried out with a fluorogenic peptide substrate, Dnp-Pro-Leu-Gly-Leu-Trp-Ala-D-Arg-NH2,which collagenase cleaves to produce Dnp-Pro-Leu-Gly and Leu-Trp-Ala-D-Arg-NH2. The rate of production of the tetrapeptide was monitored with an AMINCO-BOWMAN® spectrofluorometer (excitation wavelength of 280 nm and emission wavelength of 346 nm). This test was repeated using high performance liquid chromatography (HPLC) to separate and detect the two cleaved collagenase products.
Reaction mixtures for both the fluorometric and HPLC assays contained 0.05M Tris-HCl, 0.2M NaCl, 10 mM CaCl2 and Dnp-substrate 20 uM, pH 7.7. The peptide of Example 2 was added to the assay mixtures at varying concentrations. The incubation conditions differed between the two assays; the fluorometric reaction mixtures were incubated at 37° C. for 2 to 3 minutes whereas the HPLC reaction mixtures were incubated at 37° C. for 3 hours. This was necessary because the HPLC assay was not as sensitive in detecting the substrate cleavage products as the fluorometric assay. IC50 values were interpolated from plots of log[Ao /Ai)-1[ vs. log[Inhibitor], where Ao is the activity observed in the absence of inhibitor and Ai is the activity observed in the presence of inhibitor at concentration i.

[3] = SDS-PAGE, visual estimate, Type I collagen 0.4 mg/ml, 3 hours at 30° C.
[4] = mixture containing approximately equal amounts of the two diastereomers, read-out: IC50 (uM), diastereomers not resolved
[5] = fast-eluting diastereomer (C18 reversed phase), approximate concentration giving 50% inhibition of collagen degradation, read-out: IC50 (uM) Fast Isomer
[6] = slow-eluting diastereomer (C18 reversed phase), approximate concentration giving 50% inhibition of collagen degradation, read-out: IC50 (uM) Slow Isomer

T1 sequence (P14756 198-498): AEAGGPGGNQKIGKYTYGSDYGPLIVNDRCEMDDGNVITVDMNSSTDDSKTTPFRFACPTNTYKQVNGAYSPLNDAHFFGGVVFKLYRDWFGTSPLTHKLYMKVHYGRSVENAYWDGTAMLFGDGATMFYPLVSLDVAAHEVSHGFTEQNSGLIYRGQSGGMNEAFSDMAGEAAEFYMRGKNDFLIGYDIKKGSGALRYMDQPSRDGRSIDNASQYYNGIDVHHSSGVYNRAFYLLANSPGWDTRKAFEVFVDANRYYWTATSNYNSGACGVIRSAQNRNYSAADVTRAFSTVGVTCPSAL

| IC50 (pig synovial collagenase; [4]) | Compound | IC50 (PA elastase) | Estimated IC50 Range [1, 3] | other results |
| --- | --- | --- | --- | --- |
|  | C[C@H]1c2cccc(O)c2C(=O)C2=C(O)[C@]3(O)C(=O)C(C(N)=O)=C(O)[C@@H](N(C)C)[C@@H]3[C@@H](O)[C@@H]21 [Doxycycline, doxycycline] | 110 µM | 200 to 1000 µM |  |
|  | CN(C)c1ccc(O)c2c1C[C@H]1C[C@H]3[C@H](N(C)C)C(O)=C(C(N)=O)C(=O)[C@@]3(O)C(O)=C1C2=O [Minocycline, minocycline] | 260 µM |  |  |
| 2 µM | CC(C)CC(CS)C(=O)N[C@@H](Cc1ccccc1)C(=O)N[C@@H](Cc1ccccc1)C(N)=O (some centres unmarked) [Compound 6, HSCH2 CH[CH2 CH(CH3)2]COPhePheNH2] |  |  |  |
|  | CN(C)[C@@H]1C(O)=C(C(N)=O)C(=O)[C@@]2(O)C(O)=C3C(=O)c4c(O)cccc4[C@@](C)(O)[C@H]3C[C@@H]12 [Tetracycline, tetracycline] | 660 µM | 1000 to 2000 µM |  |
| 0.03 µM | CC(C)CC(CS)C(=O)N[C@@H](Cc1ccc2ccccc2c1)C(=O)N[C@@H](C)C(N)=O (some centres unmarked) [Compound 7, HSCH2 CH[CH2 CH(CH3)2]CCNalAlaNH2] |  |  |  |
|  | N[C@@H](CS)C(=O)O [Cysteine, cysteine] |  | 3000 to 10000 µM |  |
|  | CC(=O)N[C@@H](CS)C(=O)O [Acetylcysteine, acetylcysteine] |  | 10000 to 30000 µM |  |
| 4 µM | CCOC(=O)[C@H](C)NC(=O)[C@H](CCCCNC(=O)OC(C)(C)C)NC(=O)C(CS)CC(C)C (some centres unmarked) |  |  |  |
|  | O=C1O[C@H]([C@@H](O)CO)C([O-])=C1O.[Na+] [Sodium Ascorbate] |  |  | Estimated IC50 Range (mM) [1, 3]: No Inhibition |
| 0.05 µM | CC(C)CC(CS)C(=O)N[C@@H](Cc1c[nH]c2ccccc12)C(=O)N[C@@H](C)C(N)=O (some centres unmarked) [Compound 4, HSCH2 CH[CH2 CH(CH3)2]COTrpAlaNH2] |  |  |  |
|  | CC(C)CC(CS)C(=O)N[C@@H](Cc1ccccc1)C(=O)N[C@@H](C)C(N)=O (stereo partly drawn) [Compound 3, 2-[(R,S)-Mercaptomethyl]-4-methylpentanoyl-L-phenylalanyl-L-alanine amide] | 0.3 µM |  | IC50 (pig synovial collagenase; [5]): 0.3 µM; IC50 (pig synovial collagenase; [6]): 0.04 µM |
|  | CC(C)CC(CS)C(=O)N[C@@H](Cc1ccccc1)C(=O)N[C@@H](CC(C)C)C(N)=O (stereo partly drawn) [Compound 5, 2-[(R,S)-Mercaptomethyl]-4-methylpentanoyl-L-phenylalanyl-L-leucine amide] |  |  | IC50 (pig synovial collagenase; [5]): 10 µM; IC50 (pig synovial collagenase; [6]): 4 µM |
|  | O=C([O-])CC(O)(CC(=O)[O-])C(=O)[O-].[Na+].[Na+].[Na+] [Sodium Citrate, sodium citrate] |  | 10000 to 30000 µM | IC50 [2]: 45000 µM; reversal of inhibition by excess Ca++ ([1]; SDS-PAGE assay, footnote to Table II): Reversed by addition of excess Ca++ |
